The values below are quoted from earlier work in patent US20260258086A1 (priority 2021, published 2026).

For this series the following is noted: in vivo; cited from earlier work.

As for `CC[C@H](C)[C@@H]1NC(=O)CNC(=O)[C@@H]2Cc3c([nH]c4cc(O)ccc34)[S@+]([O-])CC(NC(=O)CNC1=O)C(=O)N[C@@H](CC(N)=O)C(=O)N1C[C@H](O)C[C@H]1C(=O)N[C@@H]([C@@H](C)[C@@H](O)CO)C(=O)N2` [α-amanitin], the toxicity was 0.05 to 0.1 mg/kg.
